From patent US20060069045A1, “Methods for treating familial dysautonomia” (priority 2004, published 2006)

How the values were obtained:
Assay type in all cases: cell-based, human
hnRNP A1 transcript = experiment: real-time RT-PCR analysis of hnRNP A1 transcript in EGCG-treated cells; conditions: FD-derived and normal fibroblasts, 50 μg/ml EGCG, varying lengths of time
Method: (§1) In order to identify agents that could modulate the level of the wild type IKAP transcript produced in FD-derived cells, either by increasing transcription or modulating splicing, FD-derived fibroblast cells (GM04663) were treated with EGCG. RNA was isolated from GM04663 cells treated for 24 h with varying concentrations of EGCG was subjected to real-time RT-PCR analysis using a pair of primers that recognize both of the hnRNP A2/B1 transcripts. More specifically, FD-derived fibroblast cells, seeded in 96-well plates were treated in triplicate for approximately 24 h unless noted otherwise. […] The Quantitect SYBR Green RT-PCR Kit (Qiagen) was used for real-time RT-PR analysis of the relative quantities of the exon 20-containing transcript (wild-type), the exon 20-lacking transcript (mutant), and exon 34-35 containing transcript that is unaffected by the FD-causing mutation (total), as well as the hnRNP A2/B1 and hnRNP A1 transcripts. […]
(§2) To determine the effect of EGCG on the cellular level of the exon 20-containing (wild type) IKAP mRNA, FD-derived and normal fibroblasts were treated with 50 μg/ml EGCG for varying lengths of time. The levels of hnRNP A2/B1, hnRNP A1, IKAP exon 20-containing (wild type), IKAP exon 20-lacking (mutant), and IKAP exon 34-35-containing (total) transcripts were determined (FIG. 3).

hnRNP A1 = experiment: Western blot analysis of hnRNP A1 in EGCG-treated cells; conditions: GM00850 and GM04663 cells, 24 h, 50 μg/ml EGCG
Description: (§3) The GM00850 and GM04663 cell lines, homozygous for the IVS20^+6T→C FD-causing mutation, and the GM02912 cell line, derived from an unaffected individual, were obtained from the NIGMS Human Genetic Mutant Cell Repository. LA1-55n cells were provided by Dr. Robert A. Ross. EGCG and δ-tocotrienol were purchased from Calbiochem. A monoclonal antibody generated against a peptide encoded by exons 23-28 of IKBKAP was purchased from BD Biosciences. The 4B10 and DP3B3 monoclonal antibodies, which recognize hnRNP A1 and hnRNP A2/B1, respectively, were provided by Dr. Gideon Dreyfuss.
(§4) GM00850 and GM04663 cells treated for 24 h with 50 μg/ml of EGCG were washed twice with PBS and lysed in 0.5 M Tris-HCl, pH 6.8, containing 1.4% SDS. Western blot analysis was performed essentially as described by Rubin et al. (Proc. Natl. Acad. Sci. USA 82: 6637-41 (1985)). Equal amounts of protein fractionated on a 7% NuPAGE Tris-Acetate Gel (Invitrogen) were blotted onto nitrocellulose (Bio-Rad) and probed overnight with a monoclonal antibody (BD Biosciences) to IKAP that is directed against the carboxyl end (exons 23-28) of IKAP and therefore recognizes the full-length protein. The blot was then washed and probed with a goat anti-mouse antibody conjugated to alkaline phosphatase (Promega), followed by detection with Western Blue Substrate solution (Promega). […]

hnRNP A2/B1 = experiment: Western blot analysis of hnRNP A2/B1 in EGCG-treated cells; conditions: GM00850 and GM04663 cells, 24 h, 50 μg/ml EGCG
Description: as §3, §4

hnRNP A2/B1 transcript = experiment: real-time RT-PCR analysis of hnRNP A2/B1 transcripts in EGCG-treated cells
Description: as §3
as §1, with “transcripts.” for “transcripts. More specifically, FD-derived fibroblast cells, seeded in 96-well plates were treated in triplicate for approximately 24 h unless noted otherwise.”

IKAP = experiment: Western blot analysis of full-length IKAP in treated FD-derived cells; conditions: FD-derived GM00850 and GM04663 fibroblasts, 24 h, 50 μg/ml EGCG
Description: as §3, §4

IKAP transcript [1] = experiment: real-time RT-PCR analysis of IKAP RNA levels (exon 20-containing, exon 20-lacking) in treated cells; conditions: for level of the wild-type of IKAP transcript: GM04663 cells, 24 h, each agent by itself (5 ug/ml EGCG; 6.25 ug/ml δ-tocotrienol)
Method: In order to identify agents that could modulate the level of the wild type IKAP transcript produced in FD-derived cells, either by increasing transcription or modulating splicing, FD-derived fibroblast cells (GM04663) were treated with EGCG. RNA was isolated from GM04663 cells treated for 24 h with varying concentrations of EGCG was subjected to real-time RT-PCR analysis using a pair of primers that recognize both of the hnRNP A2/B1 transcripts. More specifically, FD-derived fibroblast cells, seeded in 96-well plates were treated in triplicate for approximately 24 h unless noted otherwise. After treatment, the cells were washed once with PBS and then lysed in 50 μl Cell-to-cDNA lysis buffer (Ambion) at 75° C. for 12 min. After one freeze-thaw cycle, 4 μl of lysate was used in 20 μl RT-PCR. The Quantitect SYBR Green RT-PCR Kit (Qiagen) was used for real-time RT-PR analysis of the relative quantities of the exon 20-containing transcript (wild-type), the exon 20-lacking transcript (mutant), and exon 34-35 containing transcript that is unaffected by the FD-causing mutation (total), as well as the hnRNP A2/B1 and hnRNP A1 transcripts.
The primers used for these analyses were as follows: for the exon 20-containing transcript, 5′-AGTTGTTCATCATCGAGC-3′ (SEQ ID NO: 3) and 5′-[…]-3′ (SEQ ID NO: 4); for exon 20-lacking transcript, 5′-[…]-3′ (SEQ ID NO: 5) and 5′-[…]-3′ (SEQ ID NO: 6); for exon […] containing transcript, 5′-GAGATCATCCAAGAATCGC-3′ (SEQ ID NO: 7) and 5′-GGTAGCTGAATTCTGCTG-3′ (SEQ ID NO: 8); for hnRNP A2/B1 transcript, 5′-GAGTTGTTTCTCGAGCAG-3′ (SEQ ID NO: 9) and 5′-TGATCTTTTGCTTGCAGG-3′ (SEQ ID NO: 10); and for hnRNP A1 transcript, 5′-[…]-3′ (SEQ ID NO: 11) and 5′-[…]-3′ (SEQ ID NO: 12). Primers were used at a concentration of 0.5 μM. An ABI PRISM 7000 Sequence Detection System (Applied Biosystems), programmed as follows, was used to perform the real-time RT-PCR and analysis: 50° C.×30 min and 95° C.×15 min for one cycle, followed by 40 cycles of 94° C.×15 s, 57-60° C.×30 s, and 72° C.×30 s. To present relative amounts of PCR product obtained, results are expressed as changes in the threshold cycle (ΔCT) compared to untreated cells. The threshold cycle refers to the PCR cycle at which the fluorescence of the PCR is increased to a calculated level above background. A change of 1.0 in CT, assuming 100% PCR efficiency, would reflect a twofold change in the starting amount of the RNA template that was amplified.
To control for the amount of RNA present in the samples, RT-PCR amplification of ribosomal 18S RNA was performed on all cell lysates. […] For this analysis, TaqMan Ribosomal RNA Control Reagents were used with the TaqMan EZ RT-PCR Kit (Applied Biosystems) as per the manufacturer's protocol.
as §2

IKAP transcript [2] = experiment: RT-PCR with primers in exons 19 and 23, agarose gel, of wild-type and mutant IKAP transcripts; conditions: 24 h, 50 μg/ml EGCG
Method: The effect of EGCG treatment was further monitored by RT-PCR analysis using primers located in exons 19 and 23 capable of amplifying both the normal and mutant forms of the IKAP transcript. 4 μl of cell lysates produced as described above was used in 20 μl RT-PCR using the One Step RT-PCR Kit (Qiagen) with the following primers which recognize sequences in exons 19 and 23 of IKBKAP: 5′-GCAGCAATCATGTGTCCCA-3′ (SEQ ID NO: 1) and 5′-TAGCATCGCAGACAAGGTC-3′ (SEQ ID NO: 2). The RT-PCR was carried out as follows: one cycle of 50° C.×30 min and 95° C.×15 min, followed by 41 cycles of 94° C.×20 s, 60° C.×30 s and 72° C.×15 s, and then a final extension of 72° C.×2 min. PCR products were analyzed on a 2% agarose gel.

| SMILES | level of the hnRNP A1 transcript (hnRNP A1 transcript) | hnRNP A1 levels (Western blot) (hnRNP A1) | level of hnRNP A2/B1 (Western blot) (hnRNP A2/B1) | level of the hnRNP A2/B1 transcript (hnRNP A2/B1 transcript; FD-derived GM04663 cells, 24 h, varying concentrations of EGCG) | level of the hnRNP A2/B1 transcript (hnRNP A2/B1 transcript; FD-derived and normal fibroblasts, 50 μg/ml EGCG, varying lengths of time) | amount of IKAP (full-length protein, Western blot) (IKAP) | level of the exon 20-lacking transcript (IKAP transcript [1]; 50 μg/ml EGCG, varying lengths of time) | exon 20-containing IKAP transcript (IKAP transcript [1]; FD-derived cells, 50 μg/ml EGCG, varying lengths of time) | level of the wild-type of IKAP transcript (IKAP transcript [1]) | exon 20-containing IKAP transcript (IKAP transcript [1]; normal cells (GM02912), 50 μg/ml EGCG, varying lengths of time) | exon 20-containing transcript (RT-PCR, exons 19-23, gel) (IKAP transcript [2]; FD-derived cells) | exon 20-containing transcript (RT-PCR, exons 19-23, gel) (IKAP transcript [2]; normal cells) |
| --- | --- | --- | --- | --- | --- | --- | --- | --- | --- | --- | --- | --- |
| O=C(O[C@@H]1Cc2c(O)cc(O)cc2O[C@@H]1c1cc(O)c(O)c(O)c1)c1cc(O)c(O)c(O)c1 [EGCG, epigallocatechin gallate] | no effect | unaffected | suppress the level | clear concentration-dependent decrease | time-dependent reduction | clear increase | not affected | elevated | did not result in a significant elevation | failed to exhibit an increase | clear enhanced presence | no effect |
| CC(C)=CCC/C(C)=C/CC/C(C)=C/CC[C@]1(C)CCc2cc(O)cc(C)c2O1 [8-tocotrienol, δ-tocotrienol, reference compound] | – | – | – | – | – | – | – | – | did not result in a significant elevation | – | – | – |
